Test results: patent EP0361301A1, “Microbicidal compositions for the disinfection of dental impression materials” (Merz & Co. GmbH & Co., priority 1988, dated 1990)

Test system: Human Immunodeficiency Virus (HIV bzw. auch HTLV III oder LAV)
Experiment: HIV inactivation in suspension test versus 0.7 % formaldehyde
Settings: 0,7%ig
From the text: Die Wirksamkeit der erfindungsgemässen Zubereitungen gegen den eine AIDS-Infektion verursachenden Human Immunodeficiency Virus (HIV bzw. auch HTLV III oder LAV) im Vergleich zu 0,7%igem Formaldehyd ergab eine um eine Zehnerpotenz höhere Inaktivierung des HIV bei 1%iger Konzentration der erfindungsgemässen Zubereitung 1 in nur 5 Minuten.

C=O [Formaldehyd]
toxischer Effekt im Suspensionsversuch: toxischen Effektes
